Drawing on patent US20220041578A1, “ISOINDOLINE COMPOUND, AND PREPARATION METHOD, PHARMACEUTICAL COMPOSITION, AND APPLICATION OF ISOINDOLINE COMPOUND” (Shanghai Institute of Meteria Medica, Chinese Academy of …, priority 2018, published 2022), this text covers IC50 for 17 compounds.

Structures are written as SMILES. Where two headings read alike, the source gives them in different places. Where only a bound is given, the exact number is not on record here.

Type in all cases: cell-based
One assay relates to MM.1S cells. Nature of the assay: Effect of the compound on the proliferation of MM.1S cells (MTS). The conditions noted are these: Homo sapiens, MM1.S, 168 h, 7 days, read-out: Cell inhibitory activity (IC50). An outline of the steps: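 In 1640 medium + 10% FBS, 20,000 cells per well were treated with 5-fold compound dilutions at 0.2% DMSO for 7 days at 37° C., 5% CO2. MTS was read after 3–4 h as OD490−OD690, inhibition was calculated against DMSO and blank wells, and IC50 was fitted; three independent experiments were run.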

The subject of a further assay is Mino cells. The assay can be described thus: Effect of the compound on the proliferation of Mino cells (MTS). The settings on record: Homo sapiens, 72 h, 3 days, read-out: Inhibitory activity (IC50). The protocol:
Mino cells were cultured with 1640 plus […] and collected. The cell concentration was diluted according to the action time of 3 days, and 90 ul cell suspension was added to each well of the 96-well cell plate to make the cell count to be 8000. 10 ul of DMSO with a final concentration of 0.2% was added to the control cell wells. The compound was diluted 5-fold with the 10 mM stock solution, and 10 ul was also added to the compound cell wells (the final concentration of DMSO was 0.2%). The cells were placed in a 37° C., […] incubator and incubated for 3 days. After preparing the reaction solution according to the MTS kit (Promega, G5430), 20 μL was added to each well, incubated in a 37° C., 5% CO2 incubator for 3-4 h. Read the 490 nm absorbance value with a microtiter plate, and used the 690 nm absorbance value as the background value and OD490-OD690 as the final initial data. The formula for calculating the inhibition rate of the compound was: inhibition rate=(OD DMSO-ODcompound)/(ODDMSO-Oblank)×100%. The compound's proliferation inhibition IC50 was fitted by Graph Pad Prism 5.0. The experiment was repeated three times, and three parallel experiments were used to calculate the average and standard deviation each time.

In the next assay the test system is MV-4-11 cells. The assay can be described thus: Effect of the compound on proliferation of MV-4-11 cells (MTS). The settings on record: Homo sapiens. The protocol: MV-4-11 cells were cultured with IMDM plus 10% fetal bovine serum and collected. The cell concentration was diluted according to the action time of 7 days, and 180 ul of cell suspension was added to each well of a 96-well cell plate to make the cell count to be 2000. 20 ul of DMSO with a final concentration of 0.2% was added to the control cell wells. The compound was diluted 5-fold with the 10 mM stock solution, and 20 ul was also added to the compound cell wells (the final concentration of DMSO was 0.2%). The cells were placed in a 37° C., 5% CO2 incubator and incubated for 7 days. After preparing the reaction solution according to the MTS kit (Promega, G5430), 20 μL was added to each well, incubated in a 37° C., 5% CO2 incubator for 3-4 h. Read the 490 nm absorbance value with a microtiter plate, and used the 690 nm absorbance value as the background value and OD490-OD690 as the final initial data. The formula for calculating the inhibition rate of the compound was: inhibition rate=(OD DMSO-ODcompound)/(ODDMSO-Oblank)×100%. The compound's proliferation inhibition IC50 was fitted by Graph Pad Prism 5.0. The experiment was repeated three times, and three parallel experiments were used to calculate the average and standard deviation each time. The cell viability test results were shown in Table 3: A means cell viability IC50<1 μM, B means cell viability 1 μM≤IC50≤20 μM, C means cell viability IC50>20 μM.

The test system of assay [1] is prostate cancer cells DU145. The assay can be described thus: Proliferation of other tumor cells, DU145 (WST-8). The settings on record: Homo sapiens, DU-145, 96 h, 4 days, read-out: Inhibitory activity on proliferation, DU145 (IC50). As for the experimental part: (§1) The human triple negative breast cancer cells MDA-MB-468 and MDA-MB-231 used in this experiment were purchased from the Shanghai Cell Bank, in which L-15 medium added with 10% fetal bovine serum (FBS) and 1% double antibody was used. At 37° C., MDA-MB-468 and MDA-MB-231 cells were cultured in an incubator without CO2. Colorectal cancer cells HCT-116 were cultured in McCOY's 5A medium with 1% double antibody and 10% fetal bovine serum (FBS); prostate cancer cells DU145 were cultured in MEM medium with 1% double antibody and 10% fetal bovine serum (FBS); prostate cancer cells PC-3 were cultured in F-12 K medium with 1% double antibody and 10% fetal bovine serum (FBS); grew at 37° C., 5% CO2.
(§2) In the cell activity test experiment, 90 μL cell suspension with appropriate concentration was added to a 96-well cell culture plate according to the cell growth, each compound to be tested was gradient diluted with the corresponding medium, 10 μL diluted compound was added to 90 μL cells, and then incubated at 37° C. for 4 days. Cell proliferation was analyzed by WST-8, which could be reduced by lactate dehydrogenase in the cells to a yellow formazan. 10 μL of WST-8 reagent (DOJINDO) was added to the cells and reacted for more than 1 hour at 37° C., DMSO-treated cells were used as […]. The absorption value of 490 nm was read by enzyme-labeled plate, and the absorption value of 690 nm was taken as the background value, and OD490-OD690 was taken as the final original data, and the data was processed by GraphPad Prism6 software. The formula for calculating the inhibition rate of the compound was: inhibition rate=(ODDMSO−ODcompound)/(ODDMSO−Oblank)×100%. The compound's proliferation inhibition IC50 was fitted by Graph Pad Prism 5.0. The experiment was repeated three times, and three parallel experiments were used to calculate the average and standard deviation each time. The cell viability test results were shown in Table 4: A means cell viability IC50<1 μM, B means cell viability 1 μM≤IC50≤20 μM, C means cell viability IC50>20 μM, NT means not tested.

The test system of assay [2] is prostate cancer cells PC-3. Nature of the assay: Proliferation of other tumor cells, PC-3 (WST-8). The settings on record: Homo sapiens, 96 h, PC-3 cells, 4 days, read-out: Inhibitory activity on proliferation, PC-3 (IC50). The protocol:
as §1, §2
A general note: Formazan colour is commonly taken as a measure of viable cells.

Assay [3] has as its system triple negative breast cancer cells MDA-MB-231. The assay can be described thus: Proliferation of other tumor cells, MDA-MB-231 (WST-8). The settings on record: Homo sapiens, 96 h, MDA-MB-231 cells, 4 days, read-out: Inhibitory activity on proliferation, MDA-MB-231 (IC50). As for the experimental part:
as §1, §2

For assay [4], the system named is Colorectal cancer cells HCT-116. The assay can be described thus: Proliferation of other tumor cells, HCT-116 (WST-8). The conditions noted are these: Homo sapiens, 96 h, HCT-116 cells, 4 days, read-out: Inhibitory activity on proliferation, HCT-116 (IC50). As for the experimental part:
as §1, §2

[5] abbreviates: MV4-11, 168 h, 7 days, MTS, read-out: Inhibitory activity (IC50).
[6] abbreviates: MV4-11, read-out: cytostatic activity (IC50) on MV-4-11 cells.

`Cc1nc2cccc(N)c2c(=O)n1C1CCC(=O)NC1=O` (centres unmarked) [CC-122, reference compound]: the IC50 in the assay on MM.1S cells was below 150 nM; with Mino cells, 150 to 20000 nM; in the assay on MV-4-11 cells (setting [5]) it was above 20000 nM; in the assay on MV-4-11 cells (setting [6]), above 20000 nM.

Regarding `O=C1CCC(N2Cc3c(OCc4ccc(CN5CCOCC5)cc4)cccc3C2=O)C(=O)N1` (centres unmarked) [CC-220, reference compound], the IC50 in the assay with MM.1S cells is below 150 nM; in the assay with Mino cells it was below 150 nM; with MV-4-11 cells (setting [5]), above 20000 nM; with MV-4-11 cells (setting [6]) it was above 20000 nM.

For `O=C1CCC(N2Cc3c(OCc4cn(-c5cccc(Cl)c5Cl)nn4)cccc3C2=O)C(=O)N1` (centres unmarked) [Compound 18, 3-(4-((1-(2,3-dichlorophenyl)-1H-1,2,3-triazol-4-)methoxy)-1-oxoisoindolin-2-) piperidine-2,6-dione], the results for the IC50 in the assay with MM.1S cells, in the assay on Mino cells and in the assay with MV-4-11 cells (setting [5]) were below 150 nM, below 150 nM and below 1000 nM, respectively.

Consider `O=C1CCC(N2Cc3c(OCc4cn(-c5cccc(OC(F)(F)F)c5)nn4)cccc3C2=O)C(=O)N1` (centres unmarked) [Compound 20, 3-(1-oxo-4-((1-(3-(trifluoromethoxy)phenyl)-1H-1,2,3-triazol-4-)methoxy)isoindolin-2-) piperidine-2,6-dione], for which the IC50 in the assay on MM.1S cells is below 150 nM; in the assay with Mino cells, below 150 nM; with MV-4-11 cells (setting [5]) it was 1000 to 20000 nM.

In the case of `O=C1CCC(N2Cc3c(OCc4cn(-c5ccc6[nH]ccc6c5)nn4)cccc3C2=O)C(=O)N1` (centres unmarked) [Compound 26, 3-(4-((1-(1H-indol-5-)-1H-1,2,3-triazol-4-)methoxy)-1-oxoisoindolin-2-) piperidine-2,6-dione], the IC50 in the assay on MM.1S cells is below 150 nM; in the assay with Mino cells, below 150 nM; in the assay with MV-4-11 cells (setting [5]) it was below 1000 nM.

Regarding `COCCn1ccc2cc(-n3cc(COc4cccc5c4CN(C4CCC(=O)NC4=O)C5=O)nn3)ccc21` (centres unmarked) [Compound 28], the results for the IC50 in the assay with MM.1S cells, in the assay with Mino cells and in the assay on MV-4-11 cells (setting [5]) were below 150 nM, below 150 nM and below 1000 nM, respectively.

`O=C1CCC(N2Cc3c(OCc4cn(-c5ccc(OC6CCOCC6)cc5)nn4)cccc3C2=O)C(=O)N1` (centres unmarked) [Compound 30, 3-(1-oxo-4-((1-(4-((2H-tetrahydropyran-4-)oxy)phenyl)-1H-1,2,3-triazol-4-)methoxy)isoindolin-2-)piperidine-2,6-dione]: the IC50 with MM.1S cells is below 150 nM; with Mino cells, below 150 nM; in assay [1], 1000 to 20000 nM; in assay [2], 1000 to 20000 nM; in assay [3], 1000 to 20000 nM; in assay [4] it was 1000 to 20000 nM.

Consider `COC[C@H](Cc1ccccc1)n1cc(COc2cccc3c2CN(C2CCC(=O)NC2=O)C3=O)nn1` (some centres unmarked) [Compound 55], for which the IC50 is below 150 nM with MM.1S cells and 1000 to 20000 nM with MV-4-11 cells (setting [5]).

Turning to `O=C1CCC(N2Cc3c(OC[C@@H]4CCN(c5ccc(OC(F)(F)F)cc5)C4)cccc3C2=O)C(=O)N1` (stereo partly drawn) [Compound 70, 3-(1-oxo-4-(((R)-1-(4-(trifluoromethoxy)phenyl)pyrrolin-3-)methoxy)isoindolin-2-) piperidine-2,6-dione], the results for the IC50 in the assay on MM.1S cells, in the assay on Mino cells and with MV-4-11 cells (setting [5]) were below 150 nM, 150 to 20000 nM and 1000 to 20000 nM, respectively.

Take `O=C1CCC(N2Cc3c(OC[C@H]4CCN(c5ccc(OC(F)(F)F)cc5)C4)cccc3C2=O)C(=O)N1` (stereo partly drawn) [Compound 71, 3-(1-oxo-4-(((S)-1-(4-(trifluoromethoxy)phenyl)pyrrolin-3-)methoxy)isoindolin-2-) piperidine-2,6-dione]: the IC50 with MM.1S cells fell in the range of 150 to 20000 nM; in the assay with Mino cells it was 150 to 20000 nM; in the assay on MV-4-11 cells (setting [5]) it was 1000 to 20000 nM.

As for `O=C1CCC(N2Cc3c(OCc4cn(-c5ccc(Cl)cc5)nn4)cccc3C2=O)C(=O)N1` (centres unmarked) [Compound 74, 3-(4-((1-(4-chlorophenyl)-1H-1,2,3-triazol-4-yl)methoxy)-1-oxoisoindolin-2-yl) piperidine-2,6-dione], the IC50 is below 150 nM in the assay on MM.1S cells and below 1000 nM with MV-4-11 cells (setting [5]).

In the case of `O=C1CCC(N2Cc3c(OCc4cn(-c5ccc(Cl)c(Cl)c5)nn4)cccc3C2=O)C(=O)N1` (centres unmarked) [Compound 75, 3-(4-((1-(3,4-dichlorophenyl)-1H-1,2,3-triazol-4-yl)methoxy)-1-isoindolin-2-yl) piperidine-2,6-dione], the IC50 in the assay with MM.1S cells was below 150 nM; with MV-4-11 cells (setting [5]) it was below 1000 nM.

`O=C1CCC(N2Cc3c(OCc4cn(C56CC7CC(CC(C7)C5)C6)nn4)cccc3C2=O)C(=O)N1` [Compound 76, 3-(4-((1-((3S, 5S, 7S)-adamantan-1-yl)-1H-1,2,3-triazol-4-yl)methoxy)-1-isoindolin-2-yl) piperidin-2,6-dione]: the IC50 is below 150 nM with MM.1S cells and below 1000 nM in the assay on MV-4-11 cells (setting [5]).

Take `O=C1CCC(N2Cc3c(OCc4cn(-c5ccc(OC(F)(F)F)cc5)nn4)cc(F)cc3C2=O)C(=O)N1` (centres unmarked) [Compound 77, 3-(6-fluoro-1-oxo-4-((1-(4-(trifluoromethoxy)phenyl)-1H-1,2,3-triazol-4-yl)methoxy)isoindolin-2-yl) piperidine-2,6-dione]: the values for the IC50 in the assay on MM.1S cells and in the assay on MV-4-11 cells (setting [5]) were below 150 nM and below 1000 nM, respectively.

As for `O=C1CCC(N2Cc3c(OCc4ncc(-c5ccc(OC(F)(F)F)cc5)o4)cc(F)cc3C2=O)C(=O)N1` (centres unmarked) [Compound 81, 3-(6-fluoro-1-oxo-4-((5-(4-(trifluoromethoxy)phenyl)oxazol-2-yl)methoxy)isoindolin-2-yl) piperidine-2,6-dione], the IC50 is below 150 nM with MM.1S cells and below 1000 nM in the assay on MV-4-11 cells (setting [5]).

With `O=C1CCC(N2Cc3c(NCc4ncc(-c5ccc(OC(F)(F)F)cc5)o4)cccc3C2=O)C(=O)N1` (centres unmarked) [Compound 93], the results for the IC50 with MM.1S cells and in the assay with Mino cells were below 150 nM and 150 to 20000 nM, respectively.

In the case of `Nc1cccc2c1C(=O)N(C1CCC(=O)NC1=O)C2=O` (centres unmarked) [Pomalidomide, pomalidomide, reference compound], the IC50 with MM.1S cells is below 150 nM; in the assay with Mino cells, 150 to 20000 nM; with MV-4-11 cells (setting [5]), above 20000 nM; in the assay on MV-4-11 cells (setting [6]) it was above 20000 nM.
